From patent US20170096492A1, “DOSAGE AND ADMINISTRATION OF ANTI-IGF-1R, ANTI-ErbB3 BISPECIFIC ANTIBODIES, USES THEREOF AND METHODS OF TREATMENT [sequence]” (Merrimack Pharmaceuticals, Inc., priority 2014, published 2017)
“Also recorded” adds a separate entry of the source.

What was measured:
[1] = tested on: BxPC-3 pancreatic cancer cells; test: CTG cell viability, paclitaxel with IGF-1 or HRG, three-dimensional cultures; format: cell-based, human
Description: The cell viability assay (FIGS. 7A-B and 8A-B) was carried out using a CellTiter-Glo® (CTG) assay (Promega), which determines the number of viable cells in a culture based on quantitation of the ATP present. In FIGS. 7A-B, BxPC-3 cells were grown in low serum alone or with exogenous IGF-1 or HRG added (0-50 nM). […] For the cell viability assays described in FIGS. 8(A-B), (FIG. 8A) BxPC-3 and (FIG. 8B) CFPAC-1 cells were cultured in low (2%) serum alone or with a combination of IGF-1 (50 nM) and HRG (10 nM).

[2] = tested on: platinum-sensitive (Peol, PEA1 and OvCAR5) and platinum-resistant (Peo4 and PEA2) ovarian cancer cells; test: CTG cell viability, paclitaxel with IGF-1 or HRG, three-dimensional ovarian cultures; format: cell-based; conditions: paclitaxel 10-100 nM, IGF-1 or HRG 0-50 nM, MM-141 1 μM, 2% serum
Description: The cell viability assay (FIGS. 17A-B) was carried out using a CellTiter-Glo® (CTG) assay (Promega), which determines the number of viable cells in a culture based on quantitation of the ATP present. In FIGS. 17A-B, Peol, Peo4, PEA1, PEA2 and OvCAR5 cells were grown in 2% serum alone or with exogenous IGF-1 or HRG added (0-50 nM).

BxPC-3 cells = test: Cellular proliferation assay in low serum with or without IGF-1 or HRG; format: cell-based, human; conditions: for inhibition of cell growth: low (2%) serum
[3] = tested on: CFPAC-1 pancreatic cancer cells; test: CellTiter-Glo viability in three-dimensional nano-culture plates; format: cell-based, human
Description: CFPAC-1 pancreatic cancer cells were seeded in 10% serum-containing medium and incubated in 96-well three-dimensional nano-culture plates overnight. […] Cell viability was measured 96 hours post-treatment using CellTiter-Glo® (Promega).

[4] = tested on: HepG2 hepatocellular carcinoma cells; test: HepG2 western blot, sorafenib with or without MM-141; format: cell-based; conditions: MM-141 500 nM added to sorafenib 5 μM, 2 hours
Description: HepG2 cells were plated on 12 well dishes (3×10^5 cells per well) in 10% serum-containing media and incubated overnight. […] Following treatment, cells were harvested in lysis buffer containing protease and phosphatase inhibitors and analyzed by western blotting.

[5] = tested on: BxPC-3 (KRas wild-type) pancreatic cancer cells; test: pAKT western blot, GSK-1120212 and MM-141; format: cell-based, human; conditions: 24 h
Description: Following treatment, cells were harvested in cell lysis buffer and western blotting was performed and quantified for pAKT (Serine 473).

[6] = Phase 1 PK analysis of serum MM-141 (ELISA, non-compartmental); format: in vivo, human; conditions: range
Description: Serum for PK and PD analysis was prepared by drawing whole blood into red top tubes, clotting 30 minutes at 4-8° C. and spinning down in a refrigerated centrifuge. Serum was aliquotted and frozen immediately after centrifugation. PD analysis of total IGF-1 in serum was performed using Human IGF-I Quantikine® ELISA Kit (R&D Systems, Minneapolis, Minn.) according to the manufacturer's instructions. For the PK analysis, in brief, ELISA plates were plates were coated with IGF-1R (R&D Systems) in PBS and incubated overnight at 4° C. Plates were washed, blocked, and then samples and standards were added to plates and incubated for 2 hr at room temperature. Plates were washed and ErbB3-His was added for 1 hr at room temperature. Plates were washed and anti-His-HRP (Abeam, Cambridge, Mass.) was added for 1 hr at room temperature. Plates were developed using TMB and STOP solution and absorbance was read at 450 nm. PK parameters were analyzed using descriptive statistics including the median, mean and 95% confidence intervals around parameter estimates by dose level. All PK parameters included Cmax, Tmax, AUC (area under the concentration curve), clearance, volume of distribution at steady state (Vdss), and the terminal elimination half-life. Estimation of the PK parameters was performed using standard non-compartmental methods.

[7] = tested on: BxPC-3 derived xenograft tumors; test: BxPC-3 xenograft PD, western blot; format: in vivo, mice; conditions: MM-141 30 mpk i.p. Day 0, 3, 6 co-administered with gemcitabine 150 mpk
Excerpt: For the PD studies described in FIGS. 6A-B and FIGS. 9 A-B, nu/nu female mice were inoculated with 8×10^6 DU145 or 5×10^6 BxPC-3 cells, respectively, in 1:1 Matrigel® suspension. […] Tumor lysates were generated and subjected to western blot analysis.

[8] = tested on: panel of pancreatic cancer cell lines; test: pAKT ELISA after HRG and IGF-1 stimulation; format: cell-based, human; conditions: MM-141 500 nM 24 hours, HRG and IGF-1 100 ng/mL 15 minutes, ten cell lines
Description: Ten pancreatic cancer cell lines (see Table 3 above) were seeded at 65% confluence in 10% serum-containing medium and incubated in 96-well plates overnight. […] Following incubation, cells were treated with a combination of HRG and IGF-1 ligands at 100 ng/mL or PBS (control) for 15 minutes. After treatment, cells were harvested and protein lysates generated. Changes in pAKT levels across all treatments and cell lines were evaluated by pAKT ELISA. Phosphorylated AKT signal from untreated control was subtracted from each treatment, and then pAKT levels post-treatment with HRG and IGF-1 were normalized to 1 for each cell line.

ovarian cancer cells = test: Ovarian cancer cell western blot, AKT and ERK signaling; format: cell-based; conditions: MM-141 1 μM 1 hour, then IGF-1 50 nM or HRG 10 nM 10 minutes
Description: In FIGS. 18A-F, Peol, Peo4, Ov90, PEA1, PEA2 and OvCAR8 ovarian cancer cells were plated on 10 cm plates (1-3×10^6 cells per plate) in 10% serum-containing medium and incubated overnight. […] Following treatment, cells were harvested in lysis buffer containing protease and phosphatase inhibitors and analyzed by western blotting. Phosphorylated and total levels of IGF-1R, ErbB3, AKT and ERK were determined using target-specific antibodies.

[9] = MM-141 500 nM added to paclitaxel 50 nM

Q: With “MM-141: polyvalent bispecific antibody P4-G1-M1.3, anti-IGF-1R and anti-ErbB3; heavy chain SEQ ID NO: 3, light chain SEQ ID NO: 4” as the substance, how does the “sensitivity to cytotoxic properties of paclitaxel in a high IGF-1 setting” value [1, 9] read?
A: re-sensitize cells

Q: And the “sensitivity to cytotoxic properties of paclitaxel in the presence of high HRG” value [1, 9]?
A: re-sensitize cells

Q: What about the “resistance to cytotoxic effect of paclitaxel caused by IGF-1 or heregulin” value ([1]; paclitaxel 50 nM, IGF-1 or HRG 0-50 nM, MM-141 500 nM) of the same substance?
A: resistance was reversed

Q: And the “resistance to cytotoxic effect of paclitaxel caused by IGF-1 or heregulin” value [2]?
A: resistance was reversed

Q: And the “inhibition of cell growth, greater than in the absence of ligand” value (BxPC-3 cells; in presence of HRG)?
A: approximately 50%

Q: And the “inhibition of cell growth” value (BxPC-3 cells; IGF-1 added to the media)?
A: maximal activity

Q: And the “inhibition of cell growth” value (BxPC-3 cells; absence of exogenous ligand)?
A: unable to inhibit cell growth

Q: What about the “proliferation compared to cells incubated with ligands alone” value ([3]; MM-141 1000 nM in addition to HRG 10 nM and IGF-1 50 nM, with gemcitabine or paclitaxel) of the same substance?
A: reduced proliferation

Q: And the “sensitivity to gemcitabine in cells stimulated with HRG and IGF-1” value ([3]; gemcitabine 2 nM, HRG 10 nM, IGF-1 50 nM, MM-141 1000 nM, 96 hours)?
A: restores sensitivity

Q: What about the “sensitivity to paclitaxel in cells stimulated with HRG and IGF-1” value ([3]; paclitaxel 6 nM, HRG 10 nM, IGF-1 50 nM, MM-141 1000 nM, 96 hours) of the same substance?
A: restores sensitivity

Q: What about the “sorafenib-induced up-regulation of ErbB3 and pAKT” value [4] of the same substance?
A: overcome

Q: And the “pAKT upregulation induced by the MEK inhibitor” value ([5]; MM-141 1000 nM with GSK-1120212 250 nM)?
A: decreases the pAKT upregulation

Q: And the “pAKT (Serine 473) level” value ([5]; single agent, GSK-1120212 250 nM or MM-141 1000 nM)?
A: down-regulates the basal level of pAKT

Q: And the Half-lives ([6]; 6 mg/kg q7d)?
A: 2.4 to 6.3 days

Q: And the Half-lives ([6]; 12 mg/kg q7d)?
A: 2.1 to 2.9 days

Q: And the Half-lives ([6]; 20 mg/kg q7d)?
A: 3.3 to 3.4 days

Q: What about the Half-lives ([6]; 40 mg/kg q14d) of the same substance?
A: 3.2 to 9.9 days

Q: And the “gemcitabine-induced receptor (IGF-1R, ErbB3) up-regulation” value [7]?
A: reversed the receptor up-regulation

Q: What about the “pAKT (AKT activation) induced by the combination of HRG and IGF-1” value [8] of the same substance?
A: blocks AKT activation; also recorded: greatly reduced amount of pAKT

Q: What about the “IGF-1 and/or HRG induced upregulation in AKT and ERK survival signaling” value (ovarian cancer cells) of the same substance?
A: could be abrogated
